Test results from patent US11033526B2 (priority 2015, dated 2021).
Like-named read-outs stand apart in the source and are kept apart here.

Columns and labels:
CMVMJD135 mice [1] = settings: cited from earlier work
[2] = system: AT3q130 animals (mutant ATXN3); assay: C. elegans assay for motility defects in AT3q130 animals; type: in vivo; settings: for mutant ATXN3-mediated neuronal dysfunction (locomotion defects): liquid culture, four day old animals
Description: C. elegans assays for motility defects and aggregation. Animals (N2, AT3 WT or AT3q130) were grown in liquid culture in a 96-well plate format, with the chemical compounds, as described above. Four day old animals were transferred from the 96-well plates onto an unseeded NGM plate (equilibrated at 20° C.). Plates were allowed to dry for 1 hour before starting the assays. Motility assays were performed at 20° C. as previously described. Motor behaviour assays were run in triplicates or quadruplicates (n=3 or 4), with a total of at least 150 animals tested per genotype and/or compound. For confocal dynamic imaging and quantification of ATXN3 aggregation, live animals were immobilized with 3 mM levamisole (Sigma, USA) and mounted on a 3% agarose pad. All images were captured on an Olympus FV1000 (Japan) or Zeiss LSM 510 (Germany) confocal microscopes, under a 60× oil (NA=1.35) or 63× water (NA=1.0) objectives. Z-series imaging was acquired for all vehicle- and compound-treated animals, using a 515/514 nm laser excitation line for YFP fusion proteins. The pinhole was adjusted to 1.0 Airy unit of optical slice, and a scan was acquired every˜0.5 μm along the Z-axis. For quantification of aggregates three parameters were measured: area of aggregates/total area; number of aggregates/total area and number of aggregates. Values shown are the mean (normalized to vehicle treated control) of eight or more animals per group, unless noted otherwise.

WT mice = assay: Body weight and motor behaviour of treated WT mice; type: in vivo, mouse
Description: (§1) Transgenic mouse model and drug administration. CMVMJD135 mice were generated as described previously. DNA extraction, animal genotyping and CAG repeat size analyses were performed as previously described. The mean repeat size (±s.d.) for all mice used was 130±2. […] Only male mice were used in this study. […] Treatment was initiated at five weeks of age, one week before the expected onset of the first neurological symptoms. The trial was ended at 34 weeks of age, according to the humane endpoints established for the non-treated CMVMJD135 mice. All animal procedures were conducted in accordance with European regulations (European Union Directive 86/609/EEC). Animal facilities and the people directly involved in animal experiments (ATC, SE, ASF, SDS) were certified by the Portuguese regulatory entity-[…]. All of the protocols performed were approved by the Animal Ethics Committee of the Life and Health Sciences Research Institute, University of Minho. Behavioural assessment. […] All behavioural tests started in a pre-symptomatic stage (4 weeks) and were conducted until 30 or 34 weeks of age (FIG. 5a). Neurological tests and general health assessment were performed using the SHIRPA protocol, enriched with the hanging wire test. The dragging of the paws and the stride length were evaluated with footprinting analysis. Motor behaviour was further assessed using the balance beam walk test (12 mm square and 17 mm round beams) and the motor swimming test. All behavioural tests were performed as previously described (Silva-Fernandes, A. et al. Chronic Treatment with 17-DMAG Improves Balance and Coordination in A New Mouse Model of Machado-Joseph Disease. Neurotherapeutics (2014). Body weight was also registered for each evaluation time point.

CMVMJD135 mice [3] = assay: Behavioural assessment of CMVMJD135 mice under chronic oral treatment; type: in vivo, mouse
Description: as §1, with “Neurological tests and general health assessment were performed using the SHIRPA protocol, enriched with the hanging wire test.” left out, “All behavioural tests were performed as previously described (Silva-Fernandes, A. et al. Chronic Treatment with 17-DMAG Improves Balance and Coordination in A New Mouse Model of Machado-Joseph Disease. Neurotherapeutics (2014). Body weight was also registered for each evaluation time point.” left out

## CO[C@H]1/C=C\C=C(/C)C(=O)NC2=CC(=O)C(NCCN(C)C)=C(C[C@@H](C)C[C@H](OC)[C@H](O)[C@@H](C)/C=C(\C)[C@@H]1OC(N)=O)C2=O [17-DMAG]
CMVMJD135 mice [1]; CMVMJD135 mice, previous findings (Silva-Fernandes 2014)
  delay of manifestation of motor swimming defects: eight
CMVMJD135 mice [1]; at 30 weeks, CMVMJD135, previous findings (Silva-Fernandes 2014)
  percentage of effect in motor swimming test: 33%

## O=C1CC2(CCCC2)CC(=O)N1CCCCN1CCN(c2ncccn2)CC1 [buspirone]
[2]
  mutant ATXN3-mediated neuronal dysfunction (locomotion defects): ameliorated

## CN(C)CCCC1(c2ccc(F)cc2)OCc2cc(C#N)ccc21 (stereo not drawn) [citalopram]
WT mice
  behaviour of treated WT mice versus untreated littermates: behaved similarly
WT mice; 8 mg/kg
  beam walk test, WT mice: No differences
  body weight of WT mice: significant increase
  motor swimming test, WT mice: No differences
WT mice; 13 mg/kg
  body weight of WT mice: significant increase
[2]; Caenorhabditis elegans, dose-response profile, read-out: half-maximal effective concentration (EC50), locomotion defects
  EC50: 45 µM
CMVMJD135 mice [3]; CMVMJD135 mice
  delay of manifestation of motor swimming defects: at least 20 weeks
CMVMJD135 mice [3]; at 30 weeks, CMVMJD135
  percentage of effect in motor swimming test: 79%

## CN1C[C@H](C(=O)N[C@]2(C)O[C@@]3(O)[C@@H]4CCCN4C(=O)[C@H](Cc4ccccc4)N3C2=O)C[C@@H]2c3cccc4[nH]cc(c34)C[C@H]21 [dihydroergotamine]
[2]
  mutant ATXN3-mediated neuronal dysfunction (locomotion defects): ameliorated

## CN(C)CCC[C@@]1(c2ccc(F)cc2)OCc2cc(C#N)ccc21 [escitalopram]
[2]
  mutant ATXN3-mediated neuronal dysfunction (locomotion defects): beneficial effects

## CN1C[C@H](CO)C=C2c3cccc4[nH]cc(c34)C[C@H]21 [lysergol]
[2]
  mutant ATXN3-mediated neuronal dysfunction (locomotion defects): ameliorated

## CC(C)NCC(O)COc1cccc2[nH]ccc12 (stereo not drawn) [pindolol]
[2]
  mutant ATXN3-mediated neuronal dysfunction (locomotion defects): ameliorated
